Experiments:
[1] = target: T1, Dihydrofolate reductase (Bos taurus, UniProt P00376); assay: Inhibition of bovine liver DHFR assessed as NADPH consumption during conversion of dihydrofolic acid to tetrahydrofolic acid
T1 sequence (P00376 whole entry): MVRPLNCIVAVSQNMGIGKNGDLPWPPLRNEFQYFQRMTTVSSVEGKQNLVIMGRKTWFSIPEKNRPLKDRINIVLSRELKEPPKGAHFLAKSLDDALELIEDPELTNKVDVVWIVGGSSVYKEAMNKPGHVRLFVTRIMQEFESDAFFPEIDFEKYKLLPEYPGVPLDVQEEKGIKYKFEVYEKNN

[2] = Displacement of [3H]BTX-B from neurotoxin site 2 of voltage gated sodium channel in rat cerebral cortex synaptoneurosomes after 30 mins by scintillation counting; type: tissue-based

SMILES	IC50 [1]	IC50 [2]
Cc1ccccc1NC1=NC(N)=NC(C)(C)N1	> 100 µM	582 µM
Nc1nc(CCl)nc(Nc2cccc([N+](=O)[O-])c2)n1	> 100 µM	190 µM
COc1ccc(N2C(N)=NC(N)=NC23CCCCC3)cc1	> 100 µM	7.8 µM
Cc1ccc(NC2=NC(N)=NC(C)(C)N2)cc1	> 100 µM	71.5 µM
COc1cccc(N2C(N)=NC(N)=NC23CCCCC3)c1	> 100 µM	5.1 µM
CC1(C)N=C(N)N=C(Nc2ccccc2Cl)N1	> 100 µM	85.5 µM
CC1(C)N=C(N)N=C(Nc2ccccc2Br)N1	> 100 µM	57.5 µM
COc1cccc(NC2=NC(N)=NC(C)(C)N2)c1	> 100 µM	76.2 µM
CC1(C)N=C(N)N=C(N)N1Cc1ccc(Cl)c(Cl)c1	12.8 µM	19 µM
CC1(C)N=C(N)N=C(N)N1Cc1ccc(Cl)cc1	29.9 µM	35.3 µM
COc1ccc(CN2C(N)=NC(N)=NC2(C)C)cc1	58.8 µM	59.8 µM
CC1(C)N=C(N)N=C(Nc2cccc(Br)c2)N1	> 100 µM	12.6 µM
CC1(C)N=C(N)N=C(N)N1Cc1ccccc1	19.5 µM	53.2 µM
NC1=NC2(CCCCC2)N(c2ccccc2)C(N)=N1	> 100 µM	14.7 µM
Cc1nc(N)nc(Nc2cccc(Br)c2)n1	> 100 µM	198 µM
CC1(C)N=C(N)N=C(Nc2cccc(Cl)c2)N1	> 100 µM	16.5 µM
CC1(C)N=C(N)NC(Nc2ccc(Br)cc2)=N1	> 100 µM	18.4 µM
CC1(C)N=C(N)N=C(Nc2ccccc2)N1	> 100 µM	259 µM

SMILES	IC50 [1]	IC50 [2]
NC1=NC2(CCCCC2)N(c2ccc(Cl)cc2)C(N)=N1	> 100 µM	4.4 µM
COc1ccccc1N1C(N)=NC(N)=NC12CCCCC2	> 100 µM	12.3 µM
Nc1nc(CCl)nc(Nc2cccc(Br)c2)n1	> 100 µM	172 µM
COc1ccccc1NC1=NC(N)=NC(C)(C)N1	> 100 µM	343 µM
O=C1NC(=O)C(c2ccccc2)(c2ccccc2)N1 [PHENYTOIN]	> 100 µM	126 µM
Nc1nc(CCl)nc(Nc2ccc(Cl)c(Cl)c2)n1	> 100 µM	168 µM
Cc1nc(N)nc(Nc2cccc(Cl)c2)n1	> 100 µM	246 µM
Cc1ccc(CN2C(N)=NC(N)=NC2(C)C)cc1	24.6 µM	32.2 µM
COc1ccc(NC2=NC(N)=NC(C)(C)N2)cc1	> 100 µM	207 µM
NC1=NC2(CCCCC2)N(c2cccc(Cl)c2)C(N)=N1	> 100 µM	4 µM
Cc1ccc(N2C(N)=NC(N)=NC23CCCCC3)cc1	> 100 µM	4.2 µM
NC1=NC2(CCCCC2)N(c2ccccc2Cl)C(N)=N1	> 100 µM	13 µM
Cc1nc(N)nc(Nc2ccc(Cl)c(Cl)c2)n1	> 100 µM	274 µM
Cc1cccc(NC2=NC(N)=NC(C)(C)N2)c1	> 100 µM	186 µM
CC1(C)N=C(N)N=C(Nc2ccc(Cl)cc2)N1	> 100 µM	24.7 µM
Cc1ccccc1N1C(N)=NC(N)=NC12CCCCC2	> 100 µM	9.1 µM
Cc1cccc(N2C(N)=NC(N)=NC23CCCCC3)c1	> 100 µM	4.7 µM

Reference: ChEMBL document CHEMBL1155206, “Synthesis and in vitro evaluation of 2,4-diamino-1,3,5-triazine derivatives as neuronal voltage-gated sodium channel blockers” (Bioorg Med Chem Lett, 2009)
